In patent US20110077263A1, “Methods and Compositions of Toll-Like Receptor (TLR) Agonists” (priority 2009, published 2011):

Key:
[1] = system: TLR7 and/or TLR8; settings: cited from earlier work
[2] = cited from earlier work
[3] = system: LC exposed to HPV16 L1L2 VLP; assay type: cell-based, human; settings: co-stimulatory and activation molecules, Th1-promoting cytokines, HPV-specific T cells
Description: LC were left untreated or exposed to HPV16 L1L2 VLP for 18 h at 37° C. […] Cell supernatants were analyzed for IL-12 p40/p70 using a Bio-plex suspension bead ELISA (BioRad, Hercules, Calif.).

[4] = system: cervical intraepithelial neoplasia (CIN); settings: cited from earlier work
[5] = system: LC and LC exposed to HPV16 VLP; assay type: cell-based, human; settings: 5 μM 3M-002, 30 μM imiquimod, 30 μM resiquimod, 5 μM 3M-031, 24 h; for expression of surface markers (MHC class I, MHC class II, CD80, CD86) on LC exposed to HPV16 VLP: then treated; for expression of surface markers (MHC class I, MHC class II, CD80, CD86) on LC: LC not exposed to VLP
Description: For DC, plastic adherent cells were selected by plating 2×10^8 cells in a 175-cm^2 tissue culture flask for 2 h at 37° C. Nonadherent cells were washed away and the remaining cells were cultured for 7 days in complete medium containing 1000 U/ml rGM-CSF (Berlex) and 1000 U/ml rIL-4 (BioSource International), of which 100% was replenished on day 3 and 50% was replenished on day 6. For LC, adherent cells were cultured for 7 days in complete medium containing 1000 U/ml rGM-CSF, 1000 U/ml rIL-4, and 10 ng/ml rTGF-β1 (BioSource International), of which 100% was replenished on day 3, 50% of rGM-CSF and rIL-4 was replenished on day 6, and 100% of rTGF-β1 was replenished on days 3 and 6.
(§1) DC and LC were harvested and washed twice with PBS. […] The cells were incubated for 1 h at 37° C., mixed occasionally, and finally placed at 37° C. for 24 h in complete medium containing 1000 U/ml rGM-CSF. LC were left untreated or exposed to HPV16 VLP at a concentration of 10 μg/10^6 cells. The cells were incubated for 1 h at 37° C., mixed occasionally, and placed at 37° C. for 24 h in complete medium containing 1000 U/ml rGM-CSF. […] DC and LC were harvested, washed, and analyzed by flow cytometry for the expression and surface markers. Additionally, untreated LC and LC exposed to HPV16 VLP were also analyzed for the expression of TLR7 and TLR8.
Each population of cells was harvested after the final incubation and analyzed by flow cytometry for the expression of surface markers.

[6] = system: LC; settings: previous studies; cited from earlier work
[7] = system: LC; settings: mouse model; Suzuki et al. 2000; cited from earlier work
[8] = system: LC and LC exposed to HPV16 VLP; assay type: cell-based, human; settings: LC, and LC exposed to HPV16 VLP and then stimulated; for IP-10, MCP-1 and RANTES (CCL5) secretion: data not shown; for IL-12p70, TNF-α, IL-6, IL-8 and MIP-1β concentrations in supernatant: versus negative controls
Description: as §1
Supernatants were collected from LC stimulated in the imidazoquinolines activation assay and submitted to the Beckman Center for Immune Monitoring Core at the University of Southern California for cytokine and chemokine analysis. The assays were completed using Human Cytokine LINCOplex Kits (LINCO Research) and the Bio-Plex Suspension Array System (Bio-Rad).
Imidazoquinolines stimulate both an innate and an adaptive immune response. The innate immune response induced by imidazoquinolines drives the adaptive immune response into a Th1 cell-mediated response via the local cytokine and chemokine milieu generated primarily by activated macrophages and DC. Thus, Applicants wanted to determine whether selected imidazoquinolines could stimulate LC exposed to HPV16 VLP to produce a proinflammatory cytokine and chemokine profile similar to the cytokine milieu known to be generated by imidazoquinoline-activated DC. Cytokines and chemokines produced by untreated LC, LC exposed to HPV16 VLP, LC treated with each of the imidazoquinoline compounds, and LC exposed to HPV16 VLP and treated with the imidazoquinoline compounds were evaluated. Supernatant from each treatment was collected and analyzed using a human cytokine LINCOplex assay.

[9] = system: LC exposed to HPV16 cVLP with autologous CD8+ T cells; assay type: cell-based, human; settings: then stimulated, versus untreated LC and LC exposed to cVLP
Description: Briefly, LC were left untreated or exposed to 10 μg of HPV16 cVLP for 1 h at 37° C. in PBS. Subsequently, the cells were incubated for 4 h in complete medium supplemented with 1000 U/ml rGM-CSF at 37° C. Then cells were treated with or without each of the imidazoquinolines and incubated for 20 h at 37° C. […] LC were irradiated (25 Gy) and mixed with autologous CD8^+ T cells isolated from PBL by positive selection using a MACS MulitSort CD8^+ isolation kit (Miltenyi Biotec). Day 7 and 14 re-stimulations were done with LC treated as indicated above. For this, the medium was supplemented with IL-2 at 50 U/ml at 48 and 96 h after re-stimulation. After 28 days, cells were pooled and tested for IFN-γ production by ELISPOT as a measurement of HPV16-E7-specific CD8^+ T cell responses. Briefly, 96-well multiscreen hemagglutinin plates (Millipore) were coated with 10 μg/ml anti-human IFN-γ in PBS overnight, washed with PBS/0.5% Tween 20, and blocked for 4 h with complete medium at 37° C./5% CO2. Then, 2.5×10^5 cells/well were incubated in the presence or absence of HPV16-E7 peptide aa 86-93 for 18 h at 37° C. […] Individual spots were counted after staining with 3-amino-9-ethyl-carbazole substrate (Sigma-Aldrich). Spots were counted using the video-imaging KS ELISPOT analysis system (Zeiss).

[10] = system: LC exposed to HPV16 VLP; test: Transwell migration assay toward CCL21; assay type: cell-based, human; settings: then treated, 250 ng/ml CCL21, 3 h
Description: LC, HPV16 VLP-exposed LC, or HPV16 VLP-exposed LC treated with each of the imidazoquinolines, using the same concentrations as stated in the imidazoquinoline activation assay, to the upper chambers. The plates were incubated for 3 h at 37° C. Cells that migrated to the lower chamber were counted, and migration was calculated as the ratio of cells that migrated with/without CCL21.

[11] = system: high-risk HPV-induced vulvar intraepithelium neoplasia (VIN); settings: van Seters et al. 2008; cited from earlier work
[12] = system: DC; test: Imidazoquinoline activation assay on DC, surface markers by flow cytometry; assay type: cell-based, human
[13] = system: LC exposed to HPV16 VLP; test: CCR7 expression on LC by flow cytometry; assay type: cell-based, human; settings: then treated
[14] = system: LC; settings: allogenic MLR; Burns et al. 2000; cited from earlier work
[15] = system: LC; settings: Burns et al. 2000; Suzuki et al. 2000; cited from earlier work

CCCc1nc2c(N)nc3ccccc3c2s1 [3M-002]
Agonist receptor(s) [1]: TLR8

CCOCc1nc2c(N)nc3ccccc3c2[nH]1 [CL097]
water solubility [2]: ≥ 20 mg/mL

CC(C)Cn1cnc2c(N)nc3ccccc3c21 [imiquimod]
activation of HPV-exposed LC [3]: did not activate HPV-exposed LC
regression of cervical intraepithelial neoplasia (CIN) ([4]; clinical trials): has not led to regression
toxicity to the cervix ([4]; in vivo): toxic to the cervix
expression of surface markers (MHC class I, MHC class II, CD80, CD86) on LC exposed to HPV16 VLP [5]: moderately increased the expression of surface markers
expression of surface markers (MHC class I, MHC class II, CD80, CD86) on LC [5]: only a minor up-regulation of surface markers
transcription of cytokine genes (TNF-α, IL-6, IL-12p40 mRNA) [6]: enhanced the transcription of the genes
migration of LC [7]: induces the migration of LC
IP-10, MCP-1 and RANTES (CCL5) secretion [8]: comparable amounts
IL-12p70, TNF-α, IL-6, IL-8 and MIP-1β concentrations in supernatant [8]: comparable amounts
HPV16 E7 86-93 epitope-specific CD8+ T cell response (IFN-γ ELISPOT) [9]: did not induce a significant HPV16 epitope-specific immune response
migration toward CCL21 [10]: did not enhance CCL21-directed migration
treatment of high-risk HPV-induced VIN [11]: successful in treating
Agonist receptor(s) [1]: TLR7
expression of surface markers (MHC class I, MHC class II, CD80, CD86) on DC [12]: induced the up-regulation of surface markers
expression of CCR7 [13]: did not induce the expression of CCR7

CCOCc1nc2c(N)nc3ccccc3c2n1CC(C)(C)O [resiquimod]
activation of HPV-exposed LC [3]: fully activated HPV treated LC
expression of surface markers (MHC class I, MHC class II, CD80, CD86) on LC exposed to HPV16 VLP [5]: significantly induced the up-regulation of the surface markers
expression of surface markers (MHC class I, MHC class II, CD80, CD86) on LC [5]: significantly induced the up-regulation of surface marker
transcription of cytokine genes (TNF-α, IL-6, IL-12p40 mRNA) [6]: enhanced the transcription of the genes
allostimulatory capacity of treated LC (T cell proliferation) [14]: highly increased the allostimulatory capacity of LC
phenotypic and functional activation of LC [15]: do not phenotypically but functionally activate LC
IP-10, MCP-1 and RANTES (CCL5) secretion [8]: highly secreted
IL-12p70, TNF-α, IL-6, IL-8 and MIP-1β concentrations in supernatant [8]: statistically significantly elevated
HPV16 E7 86-93 epitope-specific CD8+ T cell response (IFN-γ ELISPOT) [9]: initiated a statistically significant HPV16 epitope-specific response
migration toward CCL21 [10]: significantly induced the migration
Agonist receptor(s) [1]: TLR8/7
expression of surface markers (MHC class I, MHC class II, CD80, CD86) on DC [12]: induced the up-regulation of surface markers
expression of CCR7 [13]: induced the up-regulation of CCR7
